Laboratory results from publication PMC11595424, “Heterocycles and a Sorbicillinoid from the Coral-Derived Fungus Penicillium chrysogenum” (Marine Drugs, 2024).

Key:
Assay type in all cases: cell-based
[1] = test system: MDA-MB-231 (human breast cancer); assay: Cytotoxicity assay, SRB method, MDA-MB-231; details: for IC50: Homo sapiens, MDA-MB-231 cells, SRB method
Protocol: (§1) The cytotoxic activity against the K562 (human leukemia) cell line was evaluated by MTT method, and the cytotoxic activities against L-02 (normal human hepatocytes), ASPC-1 (human pancreatic cancer), MDA-MB-231 (human breast cancer), NCI-H446, and NCI-H446/EP (human small cell lung cancer) cell lines were determined by SRB method. The difference between the two human small-cell lung cancer cell lines is that NCI-H446 is a sensitive cell line while the NCI-H446/EP cell line is resistant to cisplatin, etoposide, SN38, and doxorubicin. As a positive control, doxorubicin was used. […]
(§2) The cytotoxic activity against the K562 (human leukemia) cell line was evaluated by MTT method, and the cytotoxic activities against L-02 (normal human hepato-cytes), ASPC-1 (human pancreatic cancer), MDA-MB-231 (human breast cancer), NCI-H446 and NCI-H446/EP (human small cell lung cancer) cell lines were determined by SRB method.
(§3) Doxorubicin was used as a positive control.
(§4) In the cytotoxic assay, preliminary screening for cytotoxicity of compounds was performed at the concentration of 30 μM, then the compounds with inhibition rate greater than 60 % were rescreened for the IC 50 values. The blank control, vehicle control, positive control (doxorubicin) and compounds at five different concentrations (30, 15, 3.75, 1.875 and 0.9375 μM) were tested three times and the average OD values were taken to calculated IC50 values.
(§5) Table S11. Cytotoxic activities of 1−5
(§6) Compound c Inhibition rate (%) […]
(§7) a Doxorubicin was used as positive control. […]

[2] = test system: ASPC-1 (human pancreatic cancer); assay: Cytotoxicity assay, SRB method, ASPC-1; details: for IC50: Homo sapiens, ASPC1, ASPC-1 cells, SRB method
Protocol: as §1, §2, §3, §4, §5, §6, §7

[3] = test system: NCI-H446/EP (human small cell lung cancer) cell line; assay: Cytotoxicity assay, SRB method, NCI-H446/EP; details: for IC50: Homo sapiens, NCI-H446/EP cells (resistant to cisplatin, etoposide, SN38, doxorubicin), SRB method
Protocol: as §1, §2, §3, §4, §5, §6, §7

[4] = test system: NCI-H446 (human small cell lung cancer) cell line; assay: Cytotoxicity assay, SRB method, NCI-H446; details: for IC50: Homo sapiens, NCI-H446 (sensitive) cells, SRB method; for Inhibition rate (%): Table S13, NCI-H446, IC50 rescreen
Protocol: as §1, §2, §3, §4, §5, §6, §7
Table S13. Cytotoxicity against NCI-H446 cell line of 5 c (μM) OD value Inhibition rate (%) IC 50 ( μM)

[5] = test system: L-02 (normal human hepatocytes); assay: Cytotoxicity assay, SRB method, L-02; details: for IC50: Homo sapiens, L02, L-02 cells, SRB method
Protocol: as §1, §2, §3, §4, §5, §6, §7

[6] = test system: K562 (human leukemia) cell line; assay: Cytotoxicity assay, MTT method, K562; details: for IC50: Homo sapiens, K562 cell line, MTT method; for Inhibition rate (%): Table S12, K562, IC50 rescreen
Protocol: as §1, §2, §3, §4, §5, §6
a Doxorubicin was used as positive control.
Table S12. Cytotoxicity against K562 cell line of 5

[7] = test system: K562 (human leukemia) cell line; assay: Cytotoxicity assay, MTT method, K562; details: Table S12, K562, IC50 rescreen, c 7.5 μM
[8] = test system: NCI-H446 (human small cell lung cancer) cell line; assay: Cytotoxicity assay, SRB method, NCI-H446; details: Table S13, NCI-H446, IC50 rescreen, c 7.5 μM
[9] = Table S11, preliminary screening, c 30 μM
[10] = Table S11, positive control, c 1 μM

| SMILES | IC50 [1] [µM] | Inhibition rate (%) MDA-MB-231 [1, 9] [%] | IC50 [2] [µM] | Inhibition rate (%) ASPC-1 [2, 9] [%] | IC50 [3] [µM] | Inhibition rate (%) NCI-H446/EP [3, 9] [%] | IC50 [4] [µM] | Inhibition rate (%) NCI-H446 [4, 9] [%] | IC50 [5] [µM] | Inhibition rate (%) L-02 [5, 9] [%] | IC50 [6] [µM] | Inhibition rate (%) K562 [6, 9] [%] | other results |
| --- | --- | --- | --- | --- | --- | --- | --- | --- | --- | --- | --- | --- | --- |
| CC(c1nc2ccccc2c(=O)[nH]1)N1CCCC1=O (stereo not shown) [Compound 2, Chrysoquinazolinone B] | > 30 | 5.80 | > 30 | 7.93 | > 30 | 12.47 | > 30 | 4.70 | > 30 | 0.28 | > 30 | 33.57 |  |
| C/C=C/C=C/C(=O)c1cc(C)c(C(=O)O)c(C)c1O [Compound 5, 4-Carboxylsorbicillin] | > 30 | -14.63 | > 30 | 25.47 | > 30 | 54.99 | 16.9 | 86.08 | > 30 | 13.89 | 15 | 97.15 | Inhibition rate (%) ([4]; c 0.9375 μM): -8.00%; Inhibition rate (%) ([4]; c 1.875 μM): 0.43%; Inhibition rate (%) ([4]; c 3.75 μM): 2.66%; Inhibition rate (%) ([4]; c 15 μM): 51.20%; Inhibition rate (%) ([4]; c 30 μM): 74.28%; Inhibition rate (%) [7]: 20.85%; Inhibition rate (%) [8]: 14.10%; Inhibition rate (%) ([6]; c 0.9375 μM): 8.60%; Inhibition rate (%) ([6]; c 1.875 μM): 7.71%; Inhibition rate (%) ([6]; c 3.75 μM): 13.35%; Inhibition rate (%) ([6]; c 15 μM): 47.36%; Inhibition rate (%) ([6]; c 30 μM): 77.22% |
| Cc1cc(O)c(CC[C@H](C)C(=O)O)c2scnc12 [Compound 3b, Chrysobenzothiazole A] | > 30 | -4.16 | > 30 | 2.09 | > 30 | 14.64 | > 30 | 9.14 | > 30 | -5.91 | > 30 | 34.54 |  |
| Cc1cc(O)c(CC[C@@H](C)C(=O)O)c2scnc12 [Compound 3a, Chrysobenzothiazole A] | > 30 | 0.40 | > 30 | 18.16 | > 30 | 11.04 | > 30 | 1.04 | > 30 | 10.94 | > 30 | 20.39 |  |
| Cc1c(O)cc(CCC(C)C(=O)O)c2ncsc12 (stereo not shown) [Compound 4, chrysobenzothiazole B] | > 30 | 6.32 | > 30 | 8.56 | > 30 | 7.13 | > 30 | 6.55 | > 30 | -1.81 | > 30 | 37.63 |  |
| COc1cccc2c1C(=O)c1c(O)c3c(c(O)c1C2=O)C[C@@](O)(C(=O)CO)C[C@@H]3O[C@H]1C[C@H](N)[C@H](O)[C@H](C)O1 [Doxorubicin, reference compound] | < 1 |  | > 1 |  | > 1 |  | < 1 |  | < 1 |  | < 1 |  | Inhibition rate (%) MDA-MB-231 [1, 10]: 65.37%; Inhibition rate (%) ASPC-1 [2, 10]: 29.65%; Inhibition rate (%) NCI-H446/EP [3, 10]: 27.60%; Inhibition rate (%) NCI-H446 [4, 10]: 52.20%; Inhibition rate (%) L-02 [5, 10]: 87.67%; Inhibition rate (%) K562 [6, 10]: 100.00%; Inhibition rate (%) ([6]; c 1 μM): 100.00% |
| CC1C(CCc2nc3ccccc3c(=O)[nH]2)C2CC(=O)C1(C)C(=O)C2(C)O (stereo not shown) [Compound 1, Chrysoquinazolinone A] | > 30 | -4.59 | > 30 | 0.00 | > 30 | 9.68 | > 30 | 2.22 | > 30 | -0.42 | > 30 | 35.08 |  |
